According to a melting point compilation (Tetko et al.; mined from patent text by program, amines drawn as free bases though some values may be those of a salt):

Structure (SMILES)	melting point
Cc1ccc(C)c(OCc2ccccc2C(C#N)=NOC(F)F)c1	104 to 108 °C
Cc1ccc2c(Cl)cc(C(=O)NCc3ccc(Cl)cc3)c(O)c2n1	128 to 130 °C
COCOc1c(N=Nc2ccc(OC)cc2)cc(OC)cc1C(C)(C)C	102 to 103 °C
CC(C)(C)OC(=O)Nc1cc(N2CCC3(CC2)OCCO3)c(C#Cc2ccccc2)cc1[N+](=O)[O-]	179 to 180 °C
COC1(C(=O)CCc2ccc(-c3ccc(O)cc3)cc2)C=CC(Cl)=CC1N (configuration not stated)	145 to 150 °C
O=C(Cl)C(=O)c1cn(Cc2ccc(F)cc2)c2ccc(OCc3ccccc3)cc12	155 to 158 °C
C=CCOc1ccc2ccc(C(=O)OCC)cc2c1	60 to 61 °C
CCN(CC)CCNC(=O)N1CCCC(S(=O)(=O)c2ccc(OCCOC)cc2)C1 (configuration not stated)	98 to 99 °C
O=C(Nc1cc(O)c(Cl)cc1O)c1ccc(O)c(F)c1	254 to 256 °C
COC(=O)c1ccc(Cc2c(OCc3ccc(-c4ccccc4-c4nnn[nH]4)cc3)cc(C)nc2C)cc1	144 to 145 °C
COC1C=C2CC(OC(C)=O)CCC2(C)C2CCC3(C)C(=O)CCC3C12 (configuration not stated)	175 to 178 °C
Cc1nc2c(O)c(CCC(=O)c3ccccc3)c(C(=O)N3CCC3)cc2n1C	242 to 243 °C
CCOC(=O)C(C)(C)c1ccc(C(O)CCCN2CCC(C(O)(c3ccccc3)c3ccccc3)CC2)cc1 (configuration not stated)	141 to 142 °C
O=C1NCN(c2ccccc2)C12CCN(CC1CCc3ccccc3O1)CC2 (configuration not stated)	192 to 194 °C
O=C(Nc1nnn[nH]1)c1csc(-c2ncccc2O)n1	> 300 °C
CCOC(=O)C(=NO)c1ccc(F)cc1	117 to 118 °C
CN1C(=O)c2cccc(C(F)(F)F)c2Sc2ccccc21	139 to 141 °C
Cc1nn2ccccc2c1C(=O)C1=CN(C(=O)Nc2ccc(Cl)cc2)CCC1	198 to 200 °C
c1cc(COc2ccc3ccccc3c2)cc(-c2nnn[nH]2)c1	200 to 202 °C
C#CCc1c(Cl)nc(N)nc1Cl	211 to 212 °C
O=C(O)Cc1csc(NC(=O)C(F)(F)F)n1	117 to 120 °C
COc1ccc2c(c1)CC(CNC(=O)Nc1c(C(C)C)cccc1C(C)C)CC2 (configuration not stated)	171 to 172 °C
O=c1[nH]c(=S)c2[nH]cnc2n1Cc1ccc(Cl)cc1	274 to 278 °C
OC(CCc1ccc2ccccc2c1)Cn1ccnc1 (configuration not stated)	122 to 124 °C
CC(=O)N1CCC(CCC(=O)c2ccc3c(c2)CCO3)CC1	93 to 95 °C

Structure (SMILES)	melting point
CCc1noc(-c2cn(-c3ccc4c(c3)OCO4)cn2)n1	173 to 174 °C
CC1=NCCN1Cc1ccc(CCNC(=O)c2ccc(-c3ccc(Cl)cc3)cc2)cc1	170 to 172 °C
Cc1ccc2ccc(N3C(=O)c4cccnc4C3OC(=O)N3CCN(C)CC3)nc2n1 (configuration not stated)	226 °C
Cc1oc(-c2ccc3ccccc3c2)nc1/C=C/c1ccc(C=O)cc1	162 to 163 °C
O=C(NCc1ccc(Cl)cc1)c1cnc2sccc2c1O	238 to 240 °C
COc1cc([N+](=O)[O-])ccc1S(=O)(=O)Nc1ccccc1C	127 to 129 °C
COCC(O)=C(N)C(=O)O	186 to 187 °C
O=C(O)c1ccccc1COC1CCn2c(CCc3ccccc3)nc3cccc1c32 (configuration not stated)	154 to 155 °C
O=C1Nc2ccccc2C(c2ccccc2)N1C1CCN(Cc2cccc(OC(F)(F)F)c2)CC1 (single isomer, unassigned; (+))	195 to 198 °C
CCOC(=O)c1cnc2c(cnn2CC)c1OCC	112 to 115 °C
CCOC(=O)CCCCc1ccc2c(c1)C[C@@H](NC(=O)OC(C)(C)C)CC2	65 to 67 °C
Cc1c(O)cc2c(c1C)N(C=O)CC2	192 to 193 °C
COc1ccc(C2=NN(c3ccc(OCCBr)cc3)C(=O)[C@@H]3CC=CC[C@H]23)cc1OC	40 to 45 °C
CC(C)(C)SSc1nc2ccccc2s1	80 to 80.5 °C
CC(C)(C)c1cc(C(c2ccccc2)c2cc(C(C)(C)C)cc(C(C)(C)C)c2O)c(O)c(C(C)(C)C)c1	165 to 167 °C
O=C(O)c1ncn2c1CN(C(=O)N1CCCC1)c1ccccc1-2	197 to 200 °C
CCN(CC)C(=S)Oc1cc(Br)cc(Br)c1	72 to 74 °C
CCOC(=O)C(=O)Nc1nc2ccccc2s1	185 to 186 °C
Nc1nnc(C(F)(F)F)c2c1cc1cccc(CCCN3CC4CCC(CC4)C3)n12	252 to 253 °C
Cc1ccc(-n2ccc3c(OCC(C)(C)C)nn(C)c(=O)c32)c(C)c1	146 to 147 °C
O=C(Nc1cc(F)c(Cl)nc1C1CCN(CC=Cc2ccc(Cl)cc2)CC1)c1ccnc(Cl)c1	71 to 73 °C
CC(C)(C)[Si](C)(C)OC[C@H]1OC[C@@H](n2cnc3cc(Cl)c(Cl)cc32)C[C@@H]1O	143 to 155 °C
Cc1cccc(C(=O)NO)c1N(C)S(=O)(=O)c1ccc(OCCCNC(=O)c2ccc3c(c2)OCO3)cc1	102 to 112 °C
CCOC(=O)c1sc(-c2cc3cccc(NS(=O)(=O)c4cccs4)c3[nH]2)nc1C	226 to 228 °C
Cc1cc(C)c(Oc2nc(C)nc(Cl)c2Cl)c(C)c1	68 to 70 °C

Structure (SMILES)	melting point
FC(F)Oc1ccc(C=Cc2nc(CNc3ccc(CCCCn4ccnn4)cc3)co2)cc1	101 to 102 °C
CCCCc1nc(SC)c(C(=O)O)n1Cc1ccc(-c2nc3ccccn3c2-c2nnn[nH]2)cc1	160 °C
O=C(CC1CC1)NC[C@H]1CN(c2ccc3c(c2)CCCc2cn[nH]c2-3)C(=O)O1	212 to 215 °C
CCCc1c(S)ccc2c(=O)cc(C(=O)O)oc12	206 to 208 °C
Cc1cc(C)n(C(=O)CNS(=O)(=O)c2ccc(C3CCCCC3)cc2)n1	138 °C
COc1cc(S(C)(=O)=O)ccc1-c1nc2cnccc2[nH]1	234 to 235 °C
CN(C)c1nc(N(C)Cc2ccc(O)cc2)nc(N(C)Cc2ccccc2O)n1	80 to 81 °C
Cc1c(C)c2c(c(Br)c1NC(=O)CC(C)(C)C)C(c1ccc(C(C)C)cc1)CO2 (configuration not stated)	150 to 151 °C
NC(=O)c1ncn2c1CN=C(c1ccccc1Br)c1cc(F)ccc1-2	298 to 299 °C
Nc1cc(-n2cc(C(=O)O)c(=O)c3cc(F)c(F)c(Cl)c32)c(F)cc1F	225 to 226 °C
C=C(CO)C[C@](C)(O)[C@H]1CC[C@H]2[C@@H](O[Si](C)(C)C(C)(C)C)CCC[C@@]21C	95 °C
COC(=O)C(=CC(=CN(C)C)c1ccccc1[N+](=O)[O-])[N+](=O)[O-]	211 to 214 °C
O=C(O)c1cc(OCCCc2cc(-c3ccc(C(F)(F)F)cc3)no2)nn1-c1ccccc1	145 to 146 °C
Cc1cc(C(C)(C)C)c(O)c(S(=O)(=O)Nc2ccc(C#N)c(C(F)(F)F)c2)c1	159 to 162 °C
COCOc1cc(COc2nn(Cc3ccccc3)cc2CO)ccc1OCc1nc(-c2ccco2)oc1C	98 to 99 °C
O=C1C2=C(C(=O)c3ccccc31)C(=O)C1CC(Cl)=CCC1C2=O (configuration not stated)	221 to 222 °C
CC(C)N1CCc2ccc(NC(=N)c3cccs3)cc2C1	110 to 111 °C
O=C(Cn1c(-c2ccc(Cl)cc2)nc2cccnc21)NC1CCCCC1	240 to 241 °C
O=C(OC1CCCCO1)C(c1ccccc1)(c1ccccc1)c1ccccc1 (configuration not stated)	115 °C
COCCNC(=O)COC1c2ccccc2C(=O)N1c1ccc2ccc(OC)nc2n1 (configuration not stated)	172 °C
Nc1nc2c(cnn2CCc2ccccc2)c2nc(-c3ccco3)nn12	225 to 226 °C
Cc1ccc([N+](=O)[O-])c(C(O)=S)c1	165 to 169 °C
CN1CCC(c2c[nH]c3ccc(Sc4ccccn4)cc23)CC1	83 °C
CNc1nc(-c2ccccc2)c(-c2nc3ccccc3c(=O)n2-c2ccc(Cl)cc2)s1	> 275 °C
CC1(c2ccccc2)C(=O)c2c(cc(OCC(=O)O)c(Cl)c2Cl)C1c1ccccc1 (configuration not stated)	203 to 205 °C

Structure (SMILES)	melting point
CCCCCS(=O)(=O)NC(=O)CCc1cc(-c2ccccc2)nn1Cc1ccc(Cl)cc1Cl	145 to 147 °C
O=C(Cc1ccc([N+](=O)[O-])cc1C(=O)O)Nc1cccc(/C=C/c2nc(C3CCC3)cs2)c1	233 to 235 °C
N[C@@H](Cc1ccc(C(F)(F)F)cc1)[C@H](O)c1ccc(Oc2ccccc2)cc1 (racemic)	114 to 115 °C
COC(=O)COc1cccc2c(CNS(=O)(=O)CCOc3ccccc3)coc12	83 to 84 °C
CCc1nnc(C(CCN2CC3CCC2CC3)(c2ccccc2)c2ccccc2)o1	96 to 98.5 °C
O=C[C@H](OCc1ccccc1)[C@@H](OCc1ccccc1)[C@@H](O)COCc1ccccc1	68 to 73 °C
CCCn1c(=O)c2[nH]c(-c3cc(C)n(CC(=O)Nc4ccc(C)cc4)n3)nc2n(CCC)c1=O	> 300 °C
Cc1cc(O)c(SCCC(C)C)c(=O)o1	81 to 82 °C
CCC(=C1SCCCS1)c1ccc(Oc2ccccc2)cc1	53 to 54 °C
COCCN1C(=O)C(C)(C)C(=O)N(C)c2cc(CN(CCn3cc(C)c4occc4c3=O)Cc3cccnc3C)ccc21	127 to 130 °C
CCc1nc2c(N)nc3ccccc3c2n1CC1(O)CCCCC1	217 to 218 °C
COc1cc2c(cc1-c1cccnc1)-c1c(-c3cccs3)c3c(n1CC2)C(=O)N(C(C)C)CCNC3	227 to 229 °C
O=[N+]([O-])c1ccc(NN=CCc2cccnc2)cc1	212 to 214 °C
CN1C(=O)c2ccccc2Nc2ccccc21	210 to 211 °C
CCCCOc1ccc(S(=O)(=O)Nc2onc(C)c2Br)cc1	98 to 100 °C
CC(=O)OC1CC2=CC=C3C4CCC(C(C)C=CC(C)C(C)C)C4(C)CCC3C2(C)C(OC(C)=O)C1 (configuration not stated)	128 to 130 °C
Cc1cc(Cc2ccc(Cl)cc2)n(O)c(=O)c1	142 °C
CC(=O)NC1CSC(=S)N(c2cccc(F)c2)C1=O (configuration not stated)	176 to 177 °C
CCn1c(C=Cc2ccccc2)cnc1[N+](=O)[O-]	154 to 156 °C
COCC(=O)C1CCC2C3CCC4CC(O)CCC4(C)C3C(=O)CC12C (configuration not stated)	144 to 146 °C
O=c1cc(N2CCCCC2)sn1CCc1ccccc1	106 to 108 °C
CCn1ncc2c3ncn(CCC(C)C)c(=O)c3cnc21	165 to 167 °C
